Tested on: human promonocytic lymphoma cells (U937)
Experiment: Microculture indicator system (MIS), MTT growth inhibition assay with bivariate serial dilutions
Type: cell-based
Settings: for Potentiation of DNA damage by STSP as RA: U937, concentrations less than IC40, STSP as the TCI
Procedure: Microcultures of human promonocytic lymphoma cells (U937) (“the U937 cells”) originally obtained from the American Type Culture Collection (CRL 1593) and later grown by Dr. K. Zoon at the FDA in Bethesda, Md. were set up in a multiwell plate with serial two-fold dilutions of dThd in tissue culture growth medium (RPMI 1640 plus 10% Nurserum and antibiotics). The volume of medium per well was 100 μl and the cell number per well was about 1×10^5. The plate was incubated at 37° C. for 24 hr.
A dye, 3-[4,5-dimethylthiazol-2-yl]-2,5-diphenyl-tetrazolium bromide (MTT), was used as a chromogenic indicator of the metabolically active cell mass. Viable cells metabolize the dye and accumulate a reduced formazan product (blue color) which is solubilized for colorimetry. Mossman T, J. Immunol. Methods 5:55-63 (1983); Li L and Lau B H S, In Vitro Cell Dev. Biol. 29A:531-536 (1993). The MTT assay has been established as useful for measuring either growth inhibition or population killing. Plowman, supra. The MTT method is ideal for cells tested in suspension growth, and can also be used for some cells growing in monolayers. […] Alley, supra; Hofs, supra; Wilson J K et al., Br. J. Cancer 62:189-94 (1990); Plowman, supra.
Thirty μl of 0.5% MTT in phosphate buffered saline was added to each microculture well at the appropriate time. After incubation at 37° C. for 3 hr, 120 μl of an aqueous solution of 10 % SDS with 0.01 N HCl was added to release and dissolve formazan product. This was accomplished by overnight incubation of the plate at 37° C. After careful mixing of the microwell contents by placing the plates on an orbital shaker for 5 minutes the absorbencies were quantitated by spectrophotometry at 570 nm with a Ceres UV 900 HDI microwell plate reader (from Biotek Instruments Inc, Winooski, Vt. 05404-0998). Absorbance data was normalized to a blank well containing all reagents without cells and was collected semi-automatically.
Flat-bottom 96-well plates of tissue culture quality (Corning or Costar) were set up with two-fold serial dilutions of each agent to be tested, e.g., the RA and TCI, using a multichannel pipettor with adjustable volume, e.g., Costar or Rainin, to perform serial mixing. This set-up is diagrammed in FIG. 12. […] In each plate, a total of 59 wells then contained bivariate agent combinations, the bivariate serial dilutions.
Agents were serially diluted by serial mixing in two separate plates or series of wells, and then were combined prior to addition of a fixed volume and density of the U937 cells in a suspension calculated to deliver about 1×10^5 cells per well.
Cells were added after serial dilutions of the dThd had been dispensed. Cells were dispensed at about 10×10^4 cells per microwell to provide optimal sensitivity of detection of cell damage in subsequent calorimetric assays. […] The final volume of medium was 100 μl/well. The plates were further incubated at 37° C. for a total duration of 18-24 h. The dye MTT was used as a chromogenic indicator of the residual and metabolically active cell mass. (Described in Example 1).
In this MTT assay, normalized absorbance data was collected semi-automatically from each microculture well with a Ceres UV 900 HD1 plate reader, from Biotek Instruments Inc., Winooski, V T 05404-0998, stored in an EIA file under the Ceres 900 program, transferred in comma delimited format to a floppy diskette, and imported into a spread sheet program (Borland Quattro Pro) for data manipulations.

[1] = U937, total 17 H, STSP 17 H, dGuo 0 H, dGuo 0.01 mM (ninth dilution, c19), STSP nM by row: r7 100, r8 50, r9 25, r10 12.5, r11 6.25, r12 3.13, r13-r14 0
[2] = U937, total 17 H, STSP 17 H, dGuo 0 H, dGuo 0.01 mM (tenth dilution, c21), STSP nM by row: r7 100, r8 50, r9 25, r10 12.5, r11 6.25, r12 3.13, r13-r14 0
[3] = U937, total 17 H, STSP 17 H, dGuo 0 H, dGuo 0.02 mM, STSP nM by row: r7 100, r8 50, r9 25, r10 12.5, r11 6.25, r12 3.13, r13-r14 0
[4] = U937, total 17 H, STSP 17 H, dGuo 0 H, dGuo 0.06 mM, STSP nM by row: r7 100, r8 50, r9 25, r10 12.5, r11 6.25, r12 3.13, r13-r14 0
[5] = U937, total 17 H, STSP 17 H, dGuo 0 H, dGuo 0.09 mM, STSP nM by row: r7 100, r8 50, r9 25, r10 12.5, r11 6.25, r12 3.13, r13-r14 0
[6] = U937, total 17 H, STSP 17 H, dGuo 0 H, dGuo 3.00 mM, STSP nM by row: r7 100, r8 50, r9 25, r10 12.5, r11 6.25, r12 3.13, r13-r14 0

In the case of `COC(=O)[C@@]1(O)C[C@H]2O[C@]1(C)n1c3ccccc3c3c4c(c5c6ccccc6n2c5c31)C(=O)NC4` [K252a], the “combined results ratio, K252a only” value (U937, K252a only 15 H, K252a uM by row: r7 2, r8 1, r9 0.5, r10 0.25, r11 0.13, r12 0.06) is reported as 1.0 and the “combined results ratio, K252a only” value (U937, K252a only 20 H, K252a nM by row: r7 625, r8 313, r9 156, r10 78.1, r11 39.1, r12 19.5) is reported as 1.0.

`CN(Cc1cnc2nc(N)nc(N)c2n1)c1ccc(C(=O)N[C@@H](CCC(=O)O)C(=O)O)cc1` [MTX, methotrexate] showed an inhibition at 0.004 µM (Homo sapiens, U-937, U937, total 20 H, STSP 16 H, MTX 4 H, MTX 4 nM, STSP nM: 200, 100, 50, 25, 12.5, 6.25, 0) of 20%, an inhibition at 0.008 µM (Homo sapiens, U-937, U937, total 20 H, STSP 16 H, MTX 4 H, MTX 8 nM, STSP nM: 200, 100, 50, 25, 12.5, 6.25, 0) of 38% and an inhibition at […] (Homo sapiens, U-937, U937, total 20 H, STSP 16 H, MTX 4 H, MTX 16 nM, STSP nM: 200, 100, 50, 25, 12.5, 6.25, 0) of 48%. It also gave an inhibition at […] (Homo sapiens, U-937, U937, total 20 H, STSP 16 H, MTX 4 H, MTX 31 nM, STSP nM: 200, 100, 50, 25, 12.5, 6.25, 0) of 43%, an inhibition at […] (Homo sapiens, U-937, U937, total 20 H, STSP 16 H, MTX 4 H, MTX 63 nM, STSP nM: 200, 100, 50, 25, 12.5, 6.25, 0) of 47% and an inhibition at 0.125 µM (Homo sapiens, U-937, U937, total 20 H, STSP 16 H, MTX 4 H, MTX 125 nM, STSP nM: 200, 100, 50, 25, 12.5, 6.25, 0) of 52%. It also gave an inhibition at […] (Homo sapiens, U-937, U937, total 20 H, STSP 16 H, MTX 4 H, MTX 250 nM, STSP nM: 200, 100, 50, 25, 12.5, 6.25, 0) of 57%, an inhibition at 0.5 µM (Homo sapiens, U-937, U937, total 20 H, STSP 16 H, MTX 4 H, MTX 500 nM, STSP nM: 200, 100, 50, 25, 12.5, 6.25, 0) of 62% and an inhibition at 1 µM (Homo sapiens, U-937, U937, total 20 H, STSP 16 H, MTX 4 H, MTX 1000 nM, STSP nM: 200, 100, 50, 25, 12.5, 6.25, 0) of 61%. For the same compound, the “Potentiation of DNA damage by STSP as RA” value was “proved successful in potentiating DNA damage by STSP”, the Combined results ratio (U937, total 20 H, STSP 16 H, MTX 4 H, MTX 4 nM, STSP nM: 200, 100, 50, 25, 12.5, 6.25, 0) was 1.0 and the Combined results ratio (U937, total 20 H, STSP 16 H, MTX 4 H, MTX 8 nM, STSP nM: 200, 100, 50, 25, 12.5, 6.25, 0) was 1.0. The Combined results ratio (U937, total 20 H, STSP 16 H, MTX 4 H, MTX 16 nM, STSP nM: 200, 100, 50, 25, 12.5, 6.25, 0) was 1.0, the Combined results ratio (U937, total 20 H, STSP 16 H, MTX 4 H, MTX 31 nM, STSP nM: 200, 100, 50, 25, 12.5, 6.25, 0) was 1.0 and the Combined results ratio (U937, total 20 H, STSP 16 H, MTX 4 H, MTX 63 nM, STSP nM: 200, 100, 50, 25, 12.5, 6.25, 0) was 1.0. For the same compound, the Combined results ratio (U937, total 20 H, STSP 16 H, MTX 4 H, MTX 125 nM, STSP nM: 200, 100, 50, 25, 12.5, 6.25, 0) was 1.0, the Combined results ratio (U937, total 20 H, STSP 16 H, MTX 4 H, MTX 250 nM, STSP nM: 200, 100, 50, 25, 12.5, 6.25, 0) was 1.0 and the Combined results ratio (U937, total 20 H, STSP 16 H, MTX 4 H, MTX 500 nM, STSP nM: 200, 100, 50, 25, 12.5, 6.25, 0) was 1.0. For the same compound, the Combined results ratio (U937, total 20 H, STSP 16 H, MTX 4 H, MTX 1000 nM, STSP nM: 200, 100, 50, 25, 12.5, 6.25, 0) was 1.0.

`Nc1ccn([C@@H]2O[C@H](CO)[C@@H](O)[C@@H]2O)c(=O)n1` [ara-C, 1-β-D-arabinofuranosylcytosine] was tested, and the “Potentiation of DNA damage by STSP as RA” value was “proved successful in potentiating DNA damage by STSP”.

For `Cn1c(=O)c2c(ncn2C)n(C)c1=O` [caffeine], the “Interaction with STSP (differential O/S plot)” value (caffeine 0.1-2 mM) was “strongly antagonized the action of STSP”.

For `N.N.[Cl][Pt][Cl]` [cisplatin], the “combined results ratio, Cisplatin only” value (U937, Cisplatin only 16 H, Cisplatin uM by row: r7 *****, r8 *****, r9 *****, r10 5.00, r11 2.50, r12 1.25) was 1.0 and the “combined results ratio, Cisplatin only” value (U937, total 19 H, cisplatin 16 H, no STSP, cisplatin uM by row: r7 80, r8 40, r9 20, r10 10, r11 5, r12 2.5) was 1.0.

For `Nc1nc2c(ncn2[C@H]2C[C@H](O)[C@@H](CO)O2)c(=O)[nH]1` [dGuo], the “Combined results ratio (CRR), dGuo 0.02 mM” value (U937, dGuo 0.02 mM for 0 H, STSP for 17 H, total 17 H, STSP nM: 100,50,25,12.5,6.25,3.13, r13 dGuo alone) was 1.0, the “Growth inhibition (MTT), dGuo 0.02 mM” value (U937, dGuo 0.02 mM for 0 H, STSP for 17 H, total 17 H, STSP nM: 100,50,25,12.5,6.25,3.13, r14 dGuo alone) was 10% and the “Combined results ratio (CRR), dGuo 0.06 mM” value (U937, dGuo 0.06 mM for 0 H, STSP for 17 H, total 17 H, STSP nM: 100,50,25,12.5,6.25,3.13, r13 dGuo alone) was 1.0. The “Growth inhibition (MTT), dGuo 0.06 mM” value (U937, dGuo 0.06 mM for 0 H, STSP for 17 H, total 17 H, STSP nM: 100,50,25,12.5,6.25,3.13, r14 dGuo alone) was 25%, the “Combined results ratio (CRR), dGuo 0.09 mM” value (U937, dGuo 0.09 mM for 0 H, STSP for 17 H, total 17 H, STSP nM: 100,50,25,12.5,6.25,3.13, r13 dGuo alone) was 1.0 and the “Growth inhibition (MTT), dGuo 0.09 mM” value (U937, dGuo 0.09 mM for 0 H, STSP for 17 H, total 17 H, STSP nM: 100,50,25,12.5,6.25,3.13, r14 dGuo alone) was 57%. The “Combined results ratio (CRR), dGuo 3.00 mM” value (U937, dGuo 3.00 mM for 0 H, STSP for 17 H, total 17 H, STSP nM: 100,50,25,12.5,6.25,3.13, r13 dGuo alone) was 1.0, the “Growth inhibition (MTT), dGuo 3.00 mM” value (U937, dGuo 3.00 mM for 0 H, STSP for 17 H, total 17 H, STSP nM: 100,50,25,12.5,6.25,3.13, r14 dGuo alone) was 93% and the “Combined results ratio (CRR), dGuo […]” value (U937, dGuo […] for 0 H, STSP for 17 H, total 17 H, STSP nM: 100,50,25,12.5,6.25,3.13, r13 dGuo alone) was 1.0. For the same compound, the Combined results ratio [1] was 1.0, the “Growth inhibition (MTT)” value [1] was 2% and the Combined results ratio [2] was 1.0. For the same compound, the “Growth inhibition (MTT)” value [2] was 2%, the Combined results ratio [3] was 1.0 and the “Growth inhibition (MTT)” value [3] was 10%. The Combined results ratio [4] was 1.0, the “Growth inhibition (MTT)” value [4] was 25% and the Combined results ratio [5] was 1.0. The “Growth inhibition (MTT)” value [5] was 57%, the Combined results ratio [6] was 1.0 and the “Growth inhibition (MTT)” value [6] was 93%.

In the case of `O=c1[nH]c(=O)n([C@H]2C[C@H](O)[C@@H](CO)O2)cc1F` [floxuridine], the “Potentiation of DNA damage by STSP as RA” value is reported as “proved successful in potentiating DNA damage by STSP”.
